These results are taken from ChEMBL document CHEMBL2034937, “Novel 3-Oxazolidinedione-6-aryl-pyridinones as Potent, Selective, and Orally Active EP3 Receptor Antagonists” (ACS Med Chem Lett, 2010).

Each structure is given as a SMILES string. pIC50, pKi: −log10 of the molar value.

In data set [1] the target is Prostaglandin E2 receptor EP2 subtype (Homo sapiens, UniProt P43116). The data set is described as follows: Antagonist activity against human EP2 receptor expressed in CHO-K1 cells assessed as inhibition of cAMP production after 4 hrs by FRET signal in LANCE assay. It counts as functional, cell-based. On the technique in general: cAMP levels reflect the balance of adenylyl cyclase and phosphodiesterase activity.

Data set [2] is described as follows: Clearance in Sprague-Dawley rat at 1 mg/kg, iv and 2 mg/kg, po. Type of data set: ADME, organism-based. The conditions noted are these: in vivo.
The next data set has as its target Cytochrome P450 2D6 (Homo sapiens, UniProt P10635). The data set is described as follows: Inhibition of CYP2D6. Type of data set: ADME.
The target of data set [3] is Prostaglandin E2 receptor EP4 subtype (Homo sapiens, UniProt P35408). The data set is described as follows: Binding affinity at human EP4 receptor.
In a further data set the test system is Rattus norvegicus. Description: Dose-normalized AUC in Sprague-Dawley rat at 2 mg/kg, po. As to conditions: in vivo; call rule not given here. Details: dose 2 mg/kg, route oral. It counts as ADME, organism-based.
For data set [4], the target named is T1, Prostaglandin E2 receptor EP1 subtype (Homo sapiens, UniProt P34995).
T1 sequence (P34995 whole entry): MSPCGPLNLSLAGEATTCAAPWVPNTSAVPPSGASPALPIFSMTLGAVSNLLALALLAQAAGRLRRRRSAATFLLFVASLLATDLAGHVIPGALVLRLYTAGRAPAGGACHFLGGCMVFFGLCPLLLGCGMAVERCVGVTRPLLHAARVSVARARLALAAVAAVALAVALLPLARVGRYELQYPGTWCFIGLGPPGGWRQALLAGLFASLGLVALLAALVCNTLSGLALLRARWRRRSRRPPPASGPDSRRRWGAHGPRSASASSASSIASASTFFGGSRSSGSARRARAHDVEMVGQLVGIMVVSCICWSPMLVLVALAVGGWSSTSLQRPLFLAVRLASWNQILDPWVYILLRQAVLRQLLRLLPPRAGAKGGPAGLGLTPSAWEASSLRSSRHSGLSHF
The data set is described as follows: Antagonist activity at EP1 receptor in human U2OS cells expressing Gqi5 assessed as inhibition of PGE2-induced response after 24 hrs by FLIPR assay. It counts as functional, cell-based.

Another data set addresses Cytochrome P450 2C9 (Homo sapiens, UniProt P11712). The data set is described as follows: Inhibition of CYP2C9. Type of data set: ADME.
Data set [5] in a line: Oral bioavailability in Sprague-Dawley rat at 2 mg/kg. It counts as ADME, organism-based. As to conditions: in vivo.
Data set [6] deals with Voltage-gated inwardly rectifying potassium channel KCNH2 (Homo sapiens, UniProt Q12809). Description: Inhibition of human ERG.
The target of data set [7] is T2, Prostaglandin E2 receptor EP3 subtype (Rattus norvegicus, UniProt P34980).
T2 sequence (P34980 whole entry): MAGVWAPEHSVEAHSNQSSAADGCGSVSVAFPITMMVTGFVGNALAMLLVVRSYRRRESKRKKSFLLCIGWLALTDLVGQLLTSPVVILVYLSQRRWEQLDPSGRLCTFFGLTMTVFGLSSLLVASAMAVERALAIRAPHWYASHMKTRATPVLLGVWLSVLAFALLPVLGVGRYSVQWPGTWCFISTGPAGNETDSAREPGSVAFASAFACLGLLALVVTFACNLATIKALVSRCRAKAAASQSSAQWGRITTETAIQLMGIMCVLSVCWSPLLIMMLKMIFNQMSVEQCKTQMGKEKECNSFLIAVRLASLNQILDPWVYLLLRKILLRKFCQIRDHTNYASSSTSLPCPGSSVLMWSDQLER
Description: Antagonist activity at rat EP3 receptor expressed in human U2OS cells co-expressing Gqi5 assessed as inhibition of PGE2-induced response after 24 hrs by FLIPR assay. It counts as functional, cell-based.

Data set [8] addresses T3, Prostaglandin G/H synthase 2 (Rattus norvegicus, UniProt P35355).
T3 sequence (P35355 whole entry): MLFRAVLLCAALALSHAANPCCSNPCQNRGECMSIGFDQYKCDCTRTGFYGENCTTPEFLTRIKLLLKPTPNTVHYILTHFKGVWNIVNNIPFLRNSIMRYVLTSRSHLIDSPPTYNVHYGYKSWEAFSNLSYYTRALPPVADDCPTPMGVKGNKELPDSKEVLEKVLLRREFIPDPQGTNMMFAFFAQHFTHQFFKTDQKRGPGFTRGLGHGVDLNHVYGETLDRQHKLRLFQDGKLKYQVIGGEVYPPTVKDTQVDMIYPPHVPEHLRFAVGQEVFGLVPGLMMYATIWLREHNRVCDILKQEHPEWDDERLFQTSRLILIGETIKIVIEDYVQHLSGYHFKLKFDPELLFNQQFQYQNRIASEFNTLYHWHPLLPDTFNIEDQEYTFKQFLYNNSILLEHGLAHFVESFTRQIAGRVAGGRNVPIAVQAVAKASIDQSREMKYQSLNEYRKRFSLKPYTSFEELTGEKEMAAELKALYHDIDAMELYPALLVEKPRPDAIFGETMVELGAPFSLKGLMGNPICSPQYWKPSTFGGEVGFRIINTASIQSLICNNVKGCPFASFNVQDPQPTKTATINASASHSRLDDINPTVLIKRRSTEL
Description: Inhibition of COX2 in rat whole blood assessed as decreased PGE2 production. It counts as tissue-based.

For data set [9], the target named is T4, Prostaglandin G/H synthase 1 (Rattus norvegicus, UniProt Q63921).
T4 sequence (Q63921 whole entry): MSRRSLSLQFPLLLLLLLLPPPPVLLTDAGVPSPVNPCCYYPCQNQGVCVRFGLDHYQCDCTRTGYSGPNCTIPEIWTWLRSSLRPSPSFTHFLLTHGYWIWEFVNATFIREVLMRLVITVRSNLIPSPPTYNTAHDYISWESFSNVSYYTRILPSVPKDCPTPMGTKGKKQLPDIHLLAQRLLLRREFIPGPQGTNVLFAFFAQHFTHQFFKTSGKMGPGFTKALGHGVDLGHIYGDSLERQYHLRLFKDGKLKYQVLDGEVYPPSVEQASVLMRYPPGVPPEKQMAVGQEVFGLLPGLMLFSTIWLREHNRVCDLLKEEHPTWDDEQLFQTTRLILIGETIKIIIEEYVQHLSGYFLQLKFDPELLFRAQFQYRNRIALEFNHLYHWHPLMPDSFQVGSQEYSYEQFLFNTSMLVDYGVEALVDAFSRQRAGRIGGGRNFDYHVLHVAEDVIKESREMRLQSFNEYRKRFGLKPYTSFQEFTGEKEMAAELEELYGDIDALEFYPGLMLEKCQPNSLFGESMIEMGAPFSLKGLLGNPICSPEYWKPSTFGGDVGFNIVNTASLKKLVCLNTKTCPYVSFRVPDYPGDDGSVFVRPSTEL
The data set is described as follows: Inhibition of COX1 in rat whole blood assessed as decreased PGE2 production. It counts as tissue-based.

A short description of data set [10]: Drug metabolism in rat liver S9 fraction assessed as NADPH-dependent glutathione conjugate level at 10 uM after 30 mins by LC-MS/MS analysis. The conditions noted are these: s9, 0.5 h. It counts as ADME, subcellular.

Cytochrome P450 2C9, sequence (P11712 whole entry): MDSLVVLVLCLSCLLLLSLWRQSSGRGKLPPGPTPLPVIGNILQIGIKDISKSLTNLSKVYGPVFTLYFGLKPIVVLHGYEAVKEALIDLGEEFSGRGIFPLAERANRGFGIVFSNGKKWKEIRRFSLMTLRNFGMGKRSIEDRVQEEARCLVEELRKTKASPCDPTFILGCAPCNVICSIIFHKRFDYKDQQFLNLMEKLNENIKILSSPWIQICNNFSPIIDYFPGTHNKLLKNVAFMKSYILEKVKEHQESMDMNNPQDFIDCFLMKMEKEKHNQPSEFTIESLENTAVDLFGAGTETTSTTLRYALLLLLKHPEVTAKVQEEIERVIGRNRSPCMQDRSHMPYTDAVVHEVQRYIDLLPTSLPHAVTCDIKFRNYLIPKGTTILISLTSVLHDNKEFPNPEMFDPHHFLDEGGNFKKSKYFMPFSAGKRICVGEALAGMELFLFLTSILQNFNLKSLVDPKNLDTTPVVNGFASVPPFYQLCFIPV
Voltage-gated inwardly rectifying potassium channel KCNH2, sequence (Q12809 whole entry): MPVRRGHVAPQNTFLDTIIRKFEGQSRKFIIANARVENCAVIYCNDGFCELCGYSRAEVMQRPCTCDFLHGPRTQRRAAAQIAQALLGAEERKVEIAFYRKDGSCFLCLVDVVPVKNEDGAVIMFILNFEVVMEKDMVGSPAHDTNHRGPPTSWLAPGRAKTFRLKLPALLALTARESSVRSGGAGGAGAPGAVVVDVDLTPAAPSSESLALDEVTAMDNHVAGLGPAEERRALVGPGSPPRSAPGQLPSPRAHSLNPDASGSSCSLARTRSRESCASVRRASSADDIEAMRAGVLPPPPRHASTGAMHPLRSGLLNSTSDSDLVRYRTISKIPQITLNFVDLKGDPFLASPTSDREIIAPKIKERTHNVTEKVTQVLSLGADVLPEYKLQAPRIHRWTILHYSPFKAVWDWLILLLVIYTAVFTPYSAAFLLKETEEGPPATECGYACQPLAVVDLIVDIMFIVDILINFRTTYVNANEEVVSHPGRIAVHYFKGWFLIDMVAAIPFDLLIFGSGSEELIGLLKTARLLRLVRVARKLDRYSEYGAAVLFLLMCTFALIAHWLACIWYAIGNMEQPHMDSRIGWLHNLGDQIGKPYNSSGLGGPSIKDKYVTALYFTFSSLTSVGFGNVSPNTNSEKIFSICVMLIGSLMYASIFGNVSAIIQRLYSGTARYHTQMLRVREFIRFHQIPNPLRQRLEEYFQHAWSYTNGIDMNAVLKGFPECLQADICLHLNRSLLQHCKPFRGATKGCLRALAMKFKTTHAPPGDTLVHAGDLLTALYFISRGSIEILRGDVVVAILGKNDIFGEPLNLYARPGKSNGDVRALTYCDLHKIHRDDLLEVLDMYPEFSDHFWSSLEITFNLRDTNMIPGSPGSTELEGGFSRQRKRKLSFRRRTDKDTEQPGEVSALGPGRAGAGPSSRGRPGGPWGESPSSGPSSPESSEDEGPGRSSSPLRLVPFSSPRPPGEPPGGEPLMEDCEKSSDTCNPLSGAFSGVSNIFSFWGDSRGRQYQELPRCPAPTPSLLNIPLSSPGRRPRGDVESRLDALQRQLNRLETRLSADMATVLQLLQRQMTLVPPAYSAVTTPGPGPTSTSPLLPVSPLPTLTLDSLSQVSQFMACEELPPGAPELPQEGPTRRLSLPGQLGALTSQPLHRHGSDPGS
Cytochrome P450 2D6, sequence (P10635 whole entry): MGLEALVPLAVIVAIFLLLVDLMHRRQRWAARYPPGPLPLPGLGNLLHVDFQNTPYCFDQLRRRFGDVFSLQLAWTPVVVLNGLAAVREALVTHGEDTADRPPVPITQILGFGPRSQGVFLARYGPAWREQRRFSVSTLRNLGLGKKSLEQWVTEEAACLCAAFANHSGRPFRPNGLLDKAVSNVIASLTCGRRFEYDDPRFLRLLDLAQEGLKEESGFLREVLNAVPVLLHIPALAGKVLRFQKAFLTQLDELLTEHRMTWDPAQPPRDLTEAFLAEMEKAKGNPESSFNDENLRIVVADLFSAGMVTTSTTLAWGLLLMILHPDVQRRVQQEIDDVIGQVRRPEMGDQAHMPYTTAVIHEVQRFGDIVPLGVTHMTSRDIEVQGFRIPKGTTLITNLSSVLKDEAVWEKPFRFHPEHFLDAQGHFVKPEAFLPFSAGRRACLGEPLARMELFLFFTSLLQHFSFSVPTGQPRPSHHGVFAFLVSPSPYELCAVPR
Prostaglandin E2 receptor EP4 subtype, sequence (P35408 whole entry): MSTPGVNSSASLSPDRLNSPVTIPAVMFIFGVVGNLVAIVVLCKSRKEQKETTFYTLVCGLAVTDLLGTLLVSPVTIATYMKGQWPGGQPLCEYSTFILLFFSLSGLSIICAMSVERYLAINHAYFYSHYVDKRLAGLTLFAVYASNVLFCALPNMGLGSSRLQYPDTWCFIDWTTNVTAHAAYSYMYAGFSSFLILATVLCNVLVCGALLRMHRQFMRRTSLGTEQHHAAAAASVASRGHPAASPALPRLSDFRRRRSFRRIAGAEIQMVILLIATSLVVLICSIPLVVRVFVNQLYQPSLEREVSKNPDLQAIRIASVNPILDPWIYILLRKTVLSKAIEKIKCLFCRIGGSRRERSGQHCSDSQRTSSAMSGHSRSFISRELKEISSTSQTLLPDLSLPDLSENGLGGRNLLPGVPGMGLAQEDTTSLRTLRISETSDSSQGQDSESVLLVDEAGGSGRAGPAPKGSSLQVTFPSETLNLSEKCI
Prostaglandin E2 receptor EP2 subtype, sequence (P43116 whole entry): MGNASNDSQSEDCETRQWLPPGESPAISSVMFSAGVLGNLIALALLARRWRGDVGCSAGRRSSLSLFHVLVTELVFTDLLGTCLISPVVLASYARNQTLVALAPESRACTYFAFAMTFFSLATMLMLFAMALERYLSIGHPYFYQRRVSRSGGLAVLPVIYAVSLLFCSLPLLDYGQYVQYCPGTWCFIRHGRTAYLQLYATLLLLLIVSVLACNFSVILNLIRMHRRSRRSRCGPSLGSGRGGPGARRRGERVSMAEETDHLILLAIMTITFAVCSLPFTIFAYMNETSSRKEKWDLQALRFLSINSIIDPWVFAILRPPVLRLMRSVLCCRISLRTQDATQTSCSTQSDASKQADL

`CC(C)C1(c2ccc(-c3ccc4ccccc4c3)[nH]c2=O)OC(O)=NC1=O` (stereo not drawn): the pIC50 (as a rule, −log10 of the IC50, conventionally taken in molar units) was less than 4.30 in data set [1]; less than 4.30 against Cytochrome P450 2D6; less than 4.30 in data set [3]; less than 4.30 against Cytochrome P450 2C9; less than 4.30 in [6]; less than 4.00 in [8]. Besides, the negative-log IC50 (pIC50) in data set [9] is less than 4.00. The same compound had a clearance in [2] of 2.6 mL/min/kg. Moreover, the AUC/dose in the data set with Rattus norvegicus was determined as 5.5 µg·h/mL/mg/kg. Moreover, the pKi (usually the Ki on a negative log10 scale, so that one unit is a factor of ten) in data set [4] was less than 4.30; in data set [7], 8.00. The bioavailability – broadly, the share of a dose that reaches the circulation, judged against a reference dose that is usually intravenous – in [5] was 83%. Besides, in data set [10], the Drug metabolism result is recorded as “Active”.
